Source: ChEMBL document CHEMBL5550110, “An insight into the mechanistic role of (-)-Ampelopsin F from Vatica chinensis L. in inducing insulin secretion in pancreatic beta cells” (Bioorg Med Chem, 2024)
Active and inactive are the calls of the source. The rule behind the calls is not given here.

Key:
[1] = system: Beta-TC6; experiment: Induction of insulin secretion in mouse Beta-TC6 cells assessed as fold increase at 0.1 uM incubated for 24 hrs by ELISA relative to control; format: functional
[2] = Induction of glucokinase expression in mouse Beta-TC6 cells assessed as fold increase at 0.1 uM incubated for 24 hrs by Western blotting analysis relative to control; format: functional
[3] = system: Beta-TC6; experiment: Induction of mitochondrial membrane hyperpolarization in mouse Beta-TC6 cells at 0.1 uM after 24 hrs by JC-1 staining based fluorescence microscopy analysis; format: cell-based
[4] = system: Beta-TC6; experiment: Induction of calcium level in mouse Beta-TC6 cells assessed as fold increase at 0.1 uM incubated for 30 mins by Fura-2 AM staining based fluorescence microscopy analysis relative to control; format: functional; settings: 0.5 h
[5] = system: Beta-TC6; experiment: Cytotoxicity against mouse Beta-TC6 cells assessed as reduction in cell viability at 50 uM incubated for 24 hrs by MTT assay; format: toxicity, cell-based; settings: beta-tc6, 24 h
[6] = Induction of GLUT2 expression in mouse Beta-TC6 cells assessed as fold increase at 50 uM incubated for 24 hrs by Western blotting analysis relative to control; format: functional
[7] = target: Dipeptidyl peptidase 4 (Mus musculus) (UniProt P28843); experiment: Inhibition of DPP4 in mouse Beta-TC6 cells assessed as reduction in AMC production at 50 uM measured every min by fluorescence plate reader assay relative to positive control; format: cell-based
[8] = system: Beta-TC6; experiment: Induction of mitochondrial membrane hyperpolarization in mouse Beta-TC6 cells at 50 uM after 24 hrs by JC-1 staining based fluorescence microscopy analysis; format: cell-based
[9] = Induction of glucokinase expression in mouse Beta-TC6 cells assessed as fold increase at 50 uM incubated for 24 hrs by Western blotting analysis relative to control; format: functional
[10] = system: Beta-TC6; experiment: Induction of calcium level in mouse Beta-TC6 cells assessed as fold increase at 50 uM incubated for 30 mins by Fura-2 AM staining based fluorescence microscopy analysis relative to control; format: functional; settings: 0.5 h
[11] = target: Dipeptidyl peptidase 4 (Mus musculus) (UniProt P28843); experiment: Inhibition of DPP4 in mouse Beta-TC6 cells assessed as reduction in AMC production at 50 uM measured every min by fluorescence plate reader assay relative to control; format: cell-based
[12] = system: Beta-TC6; experiment: Induction of insulin secretion in mouse Beta-TC6 cells assessed as fold increase at 50 uM incubated for 24 hrs by ELISA relative to control; format: functional
[13] = system: Beta-TC6; experiment: Induction of mitochondrial membrane hyperpolarization in mouse Beta-TC6 cells at 0.9 uM after 24 hrs by JC-1 staining based fluorescence microscopy analysis; format: cell-based

Chain of Dipeptidyl peptidase 4 (Mus musculus) (P28843 whole entry, looked up): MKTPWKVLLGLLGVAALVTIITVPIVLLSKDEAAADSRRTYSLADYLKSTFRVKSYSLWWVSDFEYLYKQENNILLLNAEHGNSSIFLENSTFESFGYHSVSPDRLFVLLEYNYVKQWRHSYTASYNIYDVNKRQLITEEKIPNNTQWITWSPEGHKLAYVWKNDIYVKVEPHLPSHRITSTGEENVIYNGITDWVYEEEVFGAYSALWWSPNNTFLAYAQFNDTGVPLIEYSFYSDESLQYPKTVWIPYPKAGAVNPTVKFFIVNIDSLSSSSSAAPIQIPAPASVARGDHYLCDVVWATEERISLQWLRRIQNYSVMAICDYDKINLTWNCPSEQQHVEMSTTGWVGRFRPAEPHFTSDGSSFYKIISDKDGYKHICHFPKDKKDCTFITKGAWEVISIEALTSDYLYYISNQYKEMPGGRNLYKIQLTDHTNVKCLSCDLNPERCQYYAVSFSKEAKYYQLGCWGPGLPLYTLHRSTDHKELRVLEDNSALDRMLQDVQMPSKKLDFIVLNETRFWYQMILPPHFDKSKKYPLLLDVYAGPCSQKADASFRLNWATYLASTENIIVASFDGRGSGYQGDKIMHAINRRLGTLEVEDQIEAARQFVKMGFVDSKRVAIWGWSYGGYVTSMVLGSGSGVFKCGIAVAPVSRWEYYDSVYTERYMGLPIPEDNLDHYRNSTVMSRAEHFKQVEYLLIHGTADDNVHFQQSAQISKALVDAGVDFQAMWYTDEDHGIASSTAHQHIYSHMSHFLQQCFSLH

For COc1ccc(Cl)cc1C(=O)NCCc1ccc(S(=O)(=O)NC(=O)NC2CCCCC2)cc1 [GLYBURIDE], the “fold change (FC)” value [1] was 4, the “fold change (FC)” value [2] was 2 and the Activity [3] was “Active”. For the same compound, the “fold change (FC)” value [4] was 2.
With Oc1ccc([C@@H]2c3c(O)cc(O)cc3[C@H]3c4c(O)cc(O)cc4[C@H]2[C@@H]3c2ccc(O)cc2)cc1 the Activity [5] was under 15%, the “fold change (FC)” value [6] was 1.5 and the inhibition [7] was 85%. For the same compound, the Activity [8] was “Active”, the “fold change (FC)” value [9] was 2.5 and the “fold change (FC)” value [10] was 2. The inhibition [11] was 63% and the “fold change (FC)” value [12] was 3.5.
In the case of CC(C)[C@@H]1NC(=O)[C@H](C)OC(=O)[C@@H](C(C)C)NC(=O)[C@@H](C(C)C)OC(=O)[C@H](C(C)C)NC(=O)[C@H](C)OC(=O)[C@@H](C(C)C)NC(=O)[C@@H](C(C)C)OC(=O)[C@H](C(C)C)NC(=O)[C@H](C)OC(=O)[C@@H](C(C)C)NC(=O)[C@@H](C(C)C)OC1=O, the Activity [13] is reported as “inactive”.
